Measurements: patent US12391648B2, “Pyridyloxy thioester derivative and preparation method therefor, herbicidal composition, and application” (Qingdao Kingagroot Chemical Compound Co., Ltd., priority 2018, dated 2025)

Experiments:
Assay in all cases: Post-emergence test experiment (Table 3, 1000 g/ha)
Type in all cases: in vivo
Conditions in all cases: post-emergence spray, after 3 weeks, fresh weight inhibition
Digitaria sanguinalis = test system: Digitaria sanguinalis
Procedure, shortened: (§1)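 Activity graded levels 0-5 by fresh-weight inhibition (level 5 above 85%, level 0 below 5%), assessed 3 weeks after treatment. Plants grown in greenhouse pots were sprayed post-emergence at 2-3 leaves using acetone/tween-80 solutions with methyl oleate synergist (1.5 L/ha).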

Monochoria vaginalis = test system: Monochoria vaginalis
Procedure, shortened: as §1

Setaria viridis = test system: Setaria viridis
Procedure, shortened: as §1

Leptochloa chinensis = test system: Leptochloa chinensis
Procedure, shortened: as §1

Galium spurium = test system: Galium spurium
Procedure, shortened: as §1

Abutilon theophrasti = test system: Abutilon theophrasti
Procedure, shortened: as §1

| SMILES | Activity level (growth inhibition rate) Digitaria sanguinalis (Digitaria sanguinalis) | Activity level (growth inhibition rate) Monochoria Vaginalis (Monochoria vaginalis) | Activity level (growth inhibition rate) Setaria viridis (Setaria viridis) | Activity level (growth inhibition rate) Leptochloa chinensis (Leptochloa chinensis) | Activity level (growth inhibition rate) Galium spurium (Galium spurium) | Activity level (growth inhibition rate) Abutilon theophrasti (Abutilon theophrasti) |
| --- | --- | --- | --- | --- | --- | --- |
| CSC(=O)C(C)Oc1nc(C(F)(F)F)c(F)c(N)c1C(C)C (stereo not drawn) [Compound 11] | 5 (Level 5: the growth inhibition rate is greater than 85%) | 5 (Level 5: the growth inhibition rate is greater than 85%) | 5 (Level 5: the growth inhibition rate is greater than 85%) | 5 (Level 5: the growth inhibition rate is greater than 85%) | 5 (Level 5: the growth inhibition rate is greater than 85%) | 5 (Level 5: the growth inhibition rate is greater than 85%) |
| CC(C)CCCSC(=O)C(C)Oc1nc(F)c(Cl)c(N)c1Cl (stereo not drawn) [Compound 154] | 5 (Level 5: the growth inhibition rate is greater than 85%) | 5 (Level 5: the growth inhibition rate is greater than 85%) | 5 (Level 5: the growth inhibition rate is greater than 85%) | 5 (Level 5: the growth inhibition rate is greater than 85%) | 5 (Level 5: the growth inhibition rate is greater than 85%) | 5 (Level 5: the growth inhibition rate is greater than 85%) |
| CC(Oc1nc(F)c(Cl)c(N)c1Cl)C(=O)SC1CCCO1 (stereo not drawn) [Compound 106] | 5 (Level 5: the growth inhibition rate is greater than 85%) | 5 (Level 5: the growth inhibition rate is greater than 85%) | 5 (Level 5: the growth inhibition rate is greater than 85%) | 5 (Level 5: the growth inhibition rate is greater than 85%) | 5 (Level 5: the growth inhibition rate is greater than 85%) | 5 (Level 5: the growth inhibition rate is greater than 85%) |
| CC(Oc1nc(F)c(Cl)c(N)c1Cl)C(=O)SC/C=C/Cl (stereo not drawn) [Compound 91] | 5 (Level 5: the growth inhibition rate is greater than 85%) | 5 (Level 5: the growth inhibition rate is greater than 85%) | 5 (Level 5: the growth inhibition rate is greater than 85%) | 5 (Level 5: the growth inhibition rate is greater than 85%) | 5 (Level 5: the growth inhibition rate is greater than 85%) | 5 (Level 5: the growth inhibition rate is greater than 85%) |
| CC(Oc1nc(F)c(Cl)c(N)c1Cl)C(=O)SS(C)(=O)=O (stereo not drawn) [Compound 105] | 5 (Level 5: the growth inhibition rate is greater than 85%) | 5 (Level 5: the growth inhibition rate is greater than 85%) | 5 (Level 5: the growth inhibition rate is greater than 85%) | 5 (Level 5: the growth inhibition rate is greater than 85%) | 5 (Level 5: the growth inhibition rate is greater than 85%) | 5 (Level 5: the growth inhibition rate is greater than 85%) |
| CC(Oc1nc(F)c(Cl)c(N)c1Cl)C(=O)SC(F)(F)F (stereo not drawn) [Compound 75] | 5 (Level 5: the growth inhibition rate is greater than 85%) | 5 (Level 5: the growth inhibition rate is greater than 85%) | 5 (Level 5: the growth inhibition rate is greater than 85%) | 5 (Level 5: the growth inhibition rate is greater than 85%) | 5 (Level 5: the growth inhibition rate is greater than 85%) | 5 (Level 5: the growth inhibition rate is greater than 85%) |
| CCCC(C)CSC(=O)C(C)Oc1nc(F)c(Cl)c(N)c1Cl (stereo not drawn) [Compound 152] | 5 (Level 5: the growth inhibition rate is greater than 85%) | 5 (Level 5: the growth inhibition rate is greater than 85%) | 5 (Level 5: the growth inhibition rate is greater than 85%) | 5 (Level 5: the growth inhibition rate is greater than 85%) | 5 (Level 5: the growth inhibition rate is greater than 85%) | 5 (Level 5: the growth inhibition rate is greater than 85%) |
| CC(C)=NSC(=O)C(C)Oc1nc(F)c(Cl)c(N)c1Cl (stereo not drawn) [Compound 102] | 5 (Level 5: the growth inhibition rate is greater than 85%) | 5 (Level 5: the growth inhibition rate is greater than 85%) | 5 (Level 5: the growth inhibition rate is greater than 85%) | 5 (Level 5: the growth inhibition rate is greater than 85%) | 5 (Level 5: the growth inhibition rate is greater than 85%) | 5 (Level 5: the growth inhibition rate is greater than 85%) |
| CSC(=O)C(C)Oc1nc(I)c(Cl)c(N)c1Cl (stereo not drawn) [Compound 17] | 5 (Level 5: the growth inhibition rate is greater than 85%) | 5 (Level 5: the growth inhibition rate is greater than 85%) | 5 (Level 5: the growth inhibition rate is greater than 85%) | 5 (Level 5: the growth inhibition rate is greater than 85%) | 5 (Level 5: the growth inhibition rate is greater than 85%) | 5 (Level 5: the growth inhibition rate is greater than 85%) |
| CC(Oc1nc(F)c(Cl)c(N)c1Cl)C(=O)SC1CC1 (stereo not drawn) [Compound 81] | 5 (Level 5: the growth inhibition rate is greater than 85%) | 5 (Level 5: the growth inhibition rate is greater than 85%) | 5 (Level 5: the growth inhibition rate is greater than 85%) | 5 (Level 5: the growth inhibition rate is greater than 85%) | 5 (Level 5: the growth inhibition rate is greater than 85%) | 5 (Level 5: the growth inhibition rate is greater than 85%) |
| CCC(C)SC(=O)C(C)Oc1nc(F)c(Cl)c(N)c1Cl (stereo not drawn) [Compound 69] | 5 (Level 5: the growth inhibition rate is greater than 85%) | 5 (Level 5: the growth inhibition rate is greater than 85%) | 5 (Level 5: the growth inhibition rate is greater than 85%) | 5 (Level 5: the growth inhibition rate is greater than 85%) | 5 (Level 5: the growth inhibition rate is greater than 85%) | 5 (Level 5: the growth inhibition rate is greater than 85%) |
| CSC(=O)C(C)Oc1nc(F)c(Cl)c(NCc2ccccc2)c1Cl (stereo not drawn) [Compound 132] | 5 (Level 5: the growth inhibition rate is greater than 85%) | 5 (Level 5: the growth inhibition rate is greater than 85%) | 5 (Level 5: the growth inhibition rate is greater than 85%) | 5 (Level 5: the growth inhibition rate is greater than 85%) | 5 (Level 5: the growth inhibition rate is greater than 85%) | 5 (Level 5: the growth inhibition rate is greater than 85%) |
| C=CCSC(=O)C(C)Oc1nc(F)c(Cl)c(N)c1Cl (stereo not drawn) [Compound 89] | 5 (Level 5: the growth inhibition rate is greater than 85%) | 5 (Level 5: the growth inhibition rate is greater than 85%) | 5 (Level 5: the growth inhibition rate is greater than 85%) | 5 (Level 5: the growth inhibition rate is greater than 85%) | 5 (Level 5: the growth inhibition rate is greater than 85%) | 5 (Level 5: the growth inhibition rate is greater than 85%) |
| COC(=O)C(C)SC(=O)C(C)Oc1nc(F)c(Cl)c(N)c1Cl (stereo not drawn) [Compound 95] | 5 (Level 5: the growth inhibition rate is greater than 85%) | 5 (Level 5: the growth inhibition rate is greater than 85%) | 5 (Level 5: the growth inhibition rate is greater than 85%) | 5 (Level 5: the growth inhibition rate is greater than 85%) | 5 (Level 5: the growth inhibition rate is greater than 85%) | 5 (Level 5: the growth inhibition rate is greater than 85%) |
